Each block holds one molecule with its values, some of them ahead of it.
Columns and labels:
[1] = molecular target: MetAP2 (Homo sapiens, UniProt P50579); experiment: MetAp2 enzymatic assay, L-Met-AMC substrate (Experimental Set-Up 1); assay type: biochemical
Experimental: Quantitative MetAP2 activity assay by N-terminal cleavage of substrate 7-amino-4-methyl-courmarin was performed as follows: The activity of MetAP2 was measured using fluorescent peptide substrate L-Met-AMC (Santa Cruz Biotechnology, Inc, sc-207807) as described by Garrabrant et al. (Angiogenesis 7: 91-96, 2004). Briefly, the reaction (100 μl final) was initiated by adding 0.5 μg of MetAP2 or 5 μg HUVEC homogenate to reaction buffer containing 50 mM HEPES (pH 7.4), 100 mM NaCl, 0.1 mM CoCl2, 1 mg/ml PEG6000, and 250 μM L-Met-AMC substrate. The assay was prepared in black flat-bottomed 96-well microtiter plates and fluorescence was measured every 20 s over a period of 60 min at 25° C. using a microplate fluorometer (Bioteck, SynergyHT), with excitation and emission wavelengths set at 360 and 440 nm respectively. As a control the inhibition of the enzyme was obtained by incubating it with TNP-470 for 15 min before the addition of the substrate.
The inhibitory effect of the compounds were tested in MetAp2 enzymatic assay.

[2] = cited from earlier work
[3] = system: Choroidal Neovascularization (CNV); experiment: Laser-induced CNV in mice; assay type: in vivo, C57Bl/6J mice; conditions: Eylea, in the given dose and time
Source text: Laser-induced CNV was generated by a previously described technique with some modifications. C57Bl/6J mice (6-8 weeks) were anesthetized by intraperitoneal injections of a mixture of 85% ketamine and 15% xylazine. A mixture of 0.5% tropicamide and 0.5% phenylephrine hydrochloride was applied to both eyes to dilate the pupils. Lesions were induced by a diode pumped solid state laser (0.1 s; spot size, 100 μm; power 120 mW) around the optic nerve through a slit lamp delivery system using a Nidek while a hand-held cover slide was used as a contact lens. Only lesions in which a subretinal bubble or focal serous detachment of the retina developed were used for the experiments. For this purpose, 4 burns were performed per eye while leaving a space around the optic disc. Intravitreal injections of the treatments were performed using a PLI-100 Pico-Injector following the laser procedure. After 7 days mice were euthanized and their eyes were removed and fixed in 4% paraformaldehyde for 60 min. The cornea and lens were removed, and the entire retina was carefully dissected from the eyecup Choroid.
Blood vessels were labeled using a 1:200 dilution of isolectin IB4 conjugated with Alexa Fluor 488 or lectin-FITC. The eyecup was flat-mounted in an aqua-mount with the sclera facing down and the choroid facing up. […] The CNV area (presented in μm2) in choroidal flat mount was evaluated using ImageJ software […]

Sequence of MetAP2 (P50579 whole entry): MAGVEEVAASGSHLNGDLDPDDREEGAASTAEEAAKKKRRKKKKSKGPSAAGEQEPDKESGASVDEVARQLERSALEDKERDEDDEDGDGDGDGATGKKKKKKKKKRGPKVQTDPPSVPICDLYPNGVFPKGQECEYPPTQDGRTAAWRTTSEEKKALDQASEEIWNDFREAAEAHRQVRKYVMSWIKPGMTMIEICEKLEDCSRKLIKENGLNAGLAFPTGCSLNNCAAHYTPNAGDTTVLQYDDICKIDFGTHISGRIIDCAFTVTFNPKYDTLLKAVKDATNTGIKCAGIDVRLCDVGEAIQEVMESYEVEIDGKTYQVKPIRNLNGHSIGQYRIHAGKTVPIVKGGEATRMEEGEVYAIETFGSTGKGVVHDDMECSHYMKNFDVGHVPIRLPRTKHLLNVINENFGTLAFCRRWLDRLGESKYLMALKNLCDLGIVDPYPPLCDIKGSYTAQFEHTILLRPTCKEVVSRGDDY

Molecule: CO[C@@H]1[C@H](OC(=O)NC(=O)CCl)CC[C@]2(CO2)[C@H]1[C@@]1(C)O[C@@H]1CC=C(C)C [AD-3201]
inhibition of the catalytic activity of MetAp2 ([1]; 0.5 microM): 75%
inhibition of the catalytic activity of MetAp2 ([1]; 2.5 microM): 97%

activity in inhibiting the catalytic activity of MetAp2 compared to TNP-470 [1]: almost identical to TNP-470
inhibitory effect in MetAp2 enzymatic assay (ranking among compounds) [1]: most active
Molecule: CO[C@@H]1[C@H](OC(=O)C23CC4(C)CC(C)(CC(C)(C4)C2)C3)CC[C@]2(CO2)[C@H]1[C@@]1(C)O[C@@H]1CC=C(C)C [AD-3306, Fumagillol-3,5,7-trimethyladamantane-1-carboxylate]

Molecule: CO[C@H]1C(C2(C)O[C@@H]2CC=C(C)C)[C@]2(CC[C@H]1OC(=O)NC(=O)CCl)CO2 (some centres unmarked) [TNP-470, O-chloroacetylcarbamoyl fumagillol]
inhibition at 2.5 µM ([1]; 2.5 microM, read-out: inhibition of the catalytic activity of MetAp2): 95%
adverse side-effects ([2]; in high doses): reversible neurotoxicity in some patients
half-life in plasma ([2]; intravenous formulation): minutes

Molecule: Eylea: the standard of care, as treatment for “wet” AMD [reference compound]
effect on mouse laser induced CNV [3]: 59%

From patent publication US20250129033A1, “METAP2 INHIBITORS AND USES THEREOF” (Yissum Research Development Company of the Hebrew …, priority 2022, published 2025)
